The target in the test is T1, Human ALDH3A1 (Homo sapiens, UniProt P30838).
T1 sequence (P30838 1-453): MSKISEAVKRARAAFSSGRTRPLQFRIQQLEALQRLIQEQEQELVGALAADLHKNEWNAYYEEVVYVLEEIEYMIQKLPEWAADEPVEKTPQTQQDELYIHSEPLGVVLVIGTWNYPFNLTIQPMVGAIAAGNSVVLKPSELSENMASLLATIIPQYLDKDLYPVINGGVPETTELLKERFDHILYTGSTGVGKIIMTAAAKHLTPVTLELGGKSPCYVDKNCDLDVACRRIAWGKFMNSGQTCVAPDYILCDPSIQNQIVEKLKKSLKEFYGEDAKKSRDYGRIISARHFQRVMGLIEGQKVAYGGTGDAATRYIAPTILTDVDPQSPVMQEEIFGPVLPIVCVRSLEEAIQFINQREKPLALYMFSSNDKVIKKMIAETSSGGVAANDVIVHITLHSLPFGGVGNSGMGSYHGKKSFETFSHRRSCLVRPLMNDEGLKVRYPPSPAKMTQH
Briefly: ALDH3A1 biochemical assay (benzaldehyde/NADP+, diaphorase-resazurin readout, 1,536-well). As to conditions: for CC-v2: curve class. On the technique in general: The colour change of resazurin is a common sign of viable cells or microbes.

pIC50: −log10 of the molar value.

As for `COc1ccc(N2CCN(c3nc(C(=O)NC4CC4)cs3)CC2)cc1` [NCGC00430672-01], the AC50 (in general, the concentration giving half of the maximal activity seen) is 0.11 µM. For the same molecule, for the setting “Table S2, in-house analogs”, the Efficacy is -32.51 and the CC-v2 is -1.2.

In turn, `COc1cccc(CN2CC(C(=O)NCc3cc4ccccc4[nH]3)CCC2=O)c1` (stereo not drawn) [NCGC00449252-01] returned an AC50 of 15.8 µM. Also, for the setting “Table S1, primary screen”, the Efficacy is recorded as -45.94 and the CC-v2 was -2.2.

Molecule `CN(C)CC1(O)CCN(C(=O)Cn2cc(C(=O)C3CC3)c3ccccc32)C1` (stereo not drawn) [NCGC00438461-01] had an AC50 of 35.5 µM. For the same molecule, under “Table S1, primary screen”, the Efficacy was -41.61 and the CC-v2 is recorded as -2.4.

`COc1cccc(-c2cc(C(=O)NCc3cnn(C)c3)c3c(c2)N(C)CCO3)c1OC` [NCGC00417015-01] had an AC50 of 17.8 µM. Where the note is “Table S2, in-house analogs”, this molecule displayed an Efficacy of -40.16 and a CC-v2 of -2.2.

`C=CCOc1c(OC)ccc2c1CN(Cc1ccccc1)C(=O)CCN2CC(O)COc1ccc(OC)cc1` (stereo not drawn) [NCGC00501442-01]: the AC50 came to 8.91 µM. For the setting “Table S1, primary screen”, this molecule gave an Efficacy of -29.51 and a CC-v2 of -1.4.

Turning to `Cc1nn(Cc2ccccc2)c(C)c1[C@@H]1C=C[C@@H](NC(=O)Nc2ccccc2)C1` [NCGC00400191-01], the AC50 is 22.4 µM. Also, under “Table S2, in-house analogs”, the Efficacy is reported as -83.17 and the CC-v2 is listed as -2.2.

Molecule `Cc1cc(C)c(C)c([S+](=O)([O-])NCCC(=O)N2CCc3[nH]c(=O)c(C#N)cc3C2)c1C` [NCGC00527311-01] yielded an AC50 of 28.2 µM. Under “Table S1, primary screen”, this molecule returned an Efficacy of -52.11 and a CC-v2 of -2.2.

Turning to `COc1cc(F)ccc1-c1cc(C(=O)NCCC(N)=O)c2c(c1)N(C)CCO2` [NCGC00417040-01], half-maximal activity (AC50) was put at 20 µM. Moreover, for the setting “Table S2, in-house analogs”, the Efficacy was -27.04 and the CC-v2 is listed as -2.4.

Regarding `CCOc1ccc(C(=O)NC2CCN(c3cc(-c4ccc(OC)cc4)n[nH]3)C2)cc1OCC` (stereo not drawn) [NCGC00438182-01], the AC50 amounted to 2.51 µM. Under “Table S1, primary screen”, this molecule came in with an Efficacy of -29.34 and a CC-v2 of -1.4.

For the molecule `COc1cccc(N2CCN(c3nc(C(=O)NCc4ccco4)cs3)CC2)c1` [Compound 3], the activity was half-maximal at 12.6 µM (AC50). Also, where the note is “Table S2, in-house analogs”, the Efficacy is -54.71 and the CC-v2 is on record as -2.2.

With `COc1cccc(CNC(=O)CCNc2cnc3cnccn23)c1` [NCGC00433986-01], the AC50 stood at 14.1 µM. Under “Table S1, primary screen”, this molecule showed an Efficacy of -81.82 and a CC-v2 of -2.2.

Regarding `COc1ccc(NC2CCCN(C(=O)c3cn(CCCN)nn3)C2)cc1` (stereo not drawn) [NCGC00439852-01], the AC50 worked out at 0.89 µM. Further, where the note is “Table S1, primary screen”, the Efficacy is -61.76 and the CC-v2 is listed as -1.2.

In turn, `Cc1cc(CNC(=O)c2cc(-c3cnn(C)c3)cc3c2OCCN3C)no1` [NCGC00417081-01] registered an AC50 of 15.8 µM. Also, for the setting “Table S2, in-house analogs”, the Efficacy is -39.10 and the CC-v2 was -2.2.

Molecule `COc1ccc(N2CCN(c3nc(C(=O)NCc4ccc(F)cc4F)cs3)CC2)cc1` [NCGC00430664-01] returned an AC50 of 4.47 µM. Under “Table S2, in-house analogs”, this molecule registered an Efficacy of -32.83 and a CC-v2 of -1.4.

In the case of `CN1CCOc2c(C(=O)NCCC(N)=O)cc(-c3ccc(O)c(F)c3)cc21` [NCGC00417031-01], the activity was half-maximal at 14.1 µM (AC50). Further, where the note is “Table S2, in-house analogs”, the Efficacy is given as -80.78 and the CC-v2 is given as -2.2.

As for `COCc1nc(N2CCC(Cn3cccn3)CC2)cc([C@H]2C[C@H](N)C2)n1` [NCGC00422389-01], the AC50 came out at 15.8 µM. Under “Table S1, primary screen”, this molecule gave an Efficacy of -81.78 and a CC-v2 of -3.

Molecule `CNCc1cn(C[C@H]2O[C@@H](CC(=O)NCc3ccc(F)cc3)[C@H](O)[C@@H]2O)nn1` [NCGC00400077-01] had an AC50 of 39.8 µM. For the setting “Table S1, primary screen”, the Efficacy was -39.06 and the CC-v2 is -2.2.

For `CNC(=O)c1cccc(-c2cnc3[nH]cc(CC(=O)N(C)c4ccccc4)c3c2)c1` [NCGC00412252-01], the AC50 worked out at 0.25 µM. For the setting “Table S2, in-house analogs”, this molecule came in with an Efficacy of -26.81 and a CC-v2 of -1.4.

With `O=C(NCc1ccccc1)c1csc(N2CCN(c3ccc(Cl)cc3)CC2)n1` [NCGC00430698-01], the AC50 worked out at 2 µM. Further, under “Table S2, in-house analogs”, the Efficacy was -75.40 and the CC-v2 is -1.2.

With `COc1ccc(N2CCN(c3nc(C(=O)NCc4ccc(C)cc4)cs3)CC2)cc1` [NCGC00430668-01], half-maximal activity (AC50) was put at 3.98 µM. For the same molecule, for the setting “Table S2, in-house analogs”, the Efficacy is -57.20 and the CC-v2 was -1.2.

The molecule `Cc1nn(-c2ccc(C(C)C)cc2)c(C)c1[C@@H]1C=C[C@@H](NCc2cccc(C#N)c2)C1` [NCGC00421409-01] yielded an AC50 of 10 µM. For the setting “Table S2, in-house analogs”, this molecule returned an Efficacy of -39.09 and a CC-v2 of -1.2.

Molecule `CCCNC(=O)N1CC(Oc2ccc(-c3nc(C)no3)cc2)C1` [NCGC00441061-01] registered an AC50 of 31.6 µM. For the setting “Table S1, primary screen”, the Efficacy is listed as -48.80 and the CC-v2 was -2.2.

For the molecule `COC(=O)c1ccc2nc(CO[C@H]3CN(C4CCOCC4)C[C@H]3F)[nH]c2c1` [NCGC00392980-01], the AC50 stood at 0.18 µM. In addition, under “Table S2, in-house analogs”, the Efficacy is given as -21.56 and the CC-v2 was -1.4.

`COc1cccc(N2CCN(c3nc(C(=O)NCc4ccccc4F)cs3)CC2)c1` [NCGC00430688-01] came in with an AC50 of 2.82 µM. For the setting “Table S2, in-house analogs”, this molecule had an Efficacy of -45.69 and a CC-v2 of -1.2.

In the case of `Cc1cccc(CNC(=O)c2csc(N3CCN(c4ccccc4)CC3)n2)c1` [NCGC00430642-01], the activity was half-maximal at 1.41 µM (AC50) and the “Efficacy (ALDH3A1 biochemical)” value was determined as 74%. Besides, the pIC50 (in general, the negative decadic logarithm of the IC50, by convention in mol/L) (ALDH3A1 biochemical IC50, text) was 5.85. Further, for the setting “Table S2, in-house analogs”, the Efficacy is given as -74.85 and the CC-v2 was -1.2. Where the note is “Table S7, pAC50 − cLogP”, the LLE amounted to 2.143.

Molecule `COCC(=O)Nc1ncncc1-c1noc([C@@H]2CCCN2Cc2cc(OC)c(OC)c(OC)c2)n1` [NCGC00394846-01] gave an AC50 of 15.8 µM. Under “Table S1, primary screen”, this molecule gave an Efficacy of -70.18 and a CC-v2 of -2.2.

As for `COC(=O)c1ccc2nc(CO[C@H]3CN(C(C)=O)C[C@H]3F)[nH]c2c1` [NCGC00392964-01], the activity was half-maximal at 0.32 µM (AC50). Also, for the setting “Table S2, in-house analogs”, the Efficacy is given as -32.94 and the CC-v2 is given as -1.2.

For `CNC(=O)c1cccc(-c2cnc3[nH]cc(CC(=O)Nc4ccccc4C)c3c2)c1` [NCGC00412345-01], the AC50 worked out at 5.62 µM. Where the note is “Table S2, in-house analogs”, the Efficacy is reported as -73.33 and the CC-v2 is -2.4.

For `COc1ccc(N2CCN(c3nc(C(=O)NCc4ccccc4C)cs3)CC2)cc1` [NCGC00430666-01], the activity was half-maximal at 3.55 µM (AC50). Under “Table S2, in-house analogs”, this molecule had an Efficacy of -54.85 and a CC-v2 of -1.2.

Take `CN1CCOc2c(C(=O)NCc3cccnc3)cc(-c3cnn(C)c3)cc21` [NCGC00417099-01]: the AC50 was 0.79 µM. Besides, for the setting “Table S2, in-house analogs”, the Efficacy is reported as -54.49 and the CC-v2 is -1.4.

`O=C(Nc1ccc2c(c1)OCCO2)N1CCC(Cc2nnc(-c3ccncc3)[nH]2)C1` (stereo not drawn) [NCGC00438506-01]: the AC50 amounted to 5.62 µM. Also, for the setting “Table S1, primary screen”, the Efficacy is reported as -41.70 and the CC-v2 was -2.4.

For the molecule `CC(O)c1ccc(CCNC(=O)C(=O)Nc2cc3c4c(c2)CC(=O)N4CCC3)s1` (stereo not drawn) [NCGC00529385-01], the concentration at half-maximal activity (AC50) was determined as 11.2 µM. Also, for the setting “Table S1, primary screen”, the Efficacy is -31.52 and the CC-v2 was -2.2.

In the case of `O=C(NCc1ccc(F)cc1)c1csc(N2CCN(c3ccccc3F)CC2)n1` [NCGC00430726-01], the AC50 came out at 2 µM. Under “Table S2, in-house analogs”, this molecule registered an Efficacy of -64.54 and a CC-v2 of -1.2.

The molecule `CNC(=O)c1cccc(-c2cnc(Nc3cncnc3)c3c2CCO3)c1` [NCGC00412778-01] gave an AC50 of 44.7 µM. For the setting “Table S1, primary screen”, this molecule yielded an Efficacy of -38.45 and a CC-v2 of -2.2.

As for `COC(=O)c1ccc2nc(CO[C@H]3CN(Cc4ccc(C(F)(F)F)cc4)C[C@H]3F)[nH]c2c1` [NCGC00392986-01], half-maximal activity (AC50) was put at 28.2 µM. Moreover, under “Table S2, in-house analogs”, the Efficacy is on record as -62.94 and the CC-v2 is recorded as -2.2.

`COc1cccc(N2CCN(c3nc(C(=O)NCc4cccc(C)c4)cs3)CC2)c1` [Compound 2] showed an AC50 of 2.51 µM. Moreover, for the setting “Table S2, in-house analogs”, the Efficacy was -72.54 and the CC-v2 is -1.2.

The molecule `Cc1nn(Cc2ccccc2)c(C)c1[C@@H]1C=C[C@@H](NC(=O)c2ccco2)C1` [NCGC00397524-03] gave an AC50 of 3.16 µM. For the setting “Table S2, in-house analogs”, this molecule came in with an Efficacy of -51.19 and a CC-v2 of -1.2.

In the case of `O=C(NCc1cccc(F)c1)c1csc(N2CCN(c3ccc(Cl)cc3)CC2)n1` [Compound 1], the AC50 came to 0.71 µM. Under “Table S2, in-house analogs”, the Efficacy is -61.67 and the CC-v2 is recorded as -1.2.

Take `CC(=O)Nc1ccc(CN2CC(Oc3ccc4c(c3)OCO4)C2)cc1` [NCGC00373680-01]: the AC50 stood at 7.94 µM. Under “Table S1, primary screen”, the Efficacy was -29.03 and the CC-v2 is recorded as -1.4.

With `COc1ccc(OCc2cc(C(=O)NC(CO)C(C)C)no2)c2ccccc12` (stereo not drawn) [NCGC00427669-01], the AC50 came out at 3.98 µM. Moreover, under “Table S1, primary screen”, the Efficacy was -69.95 and the CC-v2 was -1.2.

Take `COc1cccc(N2CCN(c3nc(C(=O)NCc4cccnc4)cs3)CC2)c1` [NCGC00430684-01]: half-maximal activity (AC50) was put at 14.1 µM. Besides, for the setting “Table S2, in-house analogs”, the Efficacy was -68.54 and the CC-v2 is -2.2.

Source of the values: publication PMC13266984 (Journal of medicinal chemistry, 2026).
